Data from ChEMBL document CHEMBL1124229, “Spiro hydantoin aldose reductase inhibitors” (J Med Chem, 1988).
pIC50: −log10 of the molar value.

Tests used:
[1] = molecular target: T1, Aldo-keto reductase family 1 member B1 (Bos taurus, UniProt P16116); experiment: In vitro inhibition of partially purified calf lens aldose reductase
Rattus norvegicus = species on record: Rattus norvegicus; experiment: Ability to cause 50% reduction in sorbitol levels of sciatic nerve of streptozotocinized rats was determined; assay type: functional
[2] = molecular target: T1, Aldo-keto reductase family 1 member B1; experiment: Inhibition of partially purified calf lens aldose reductase; value ranges from 10E-4 to 10e-5 M
[3] = Rattus norvegicus, Sciatic nerve, read-out: ED50

Row | Compound | pIC50 [1] | ED50 (Rattus norvegicus; [3]) [mg/kg] | pIC50 [2] | ED50 (Rattus norvegicus) [mg/kg]
1 | O=C1NC(=O)C2(CCOc3cc(Cl)c(Cl)cc32)N1 (stereo unspecified) | > 7.00 | < 1.5 |  | 
2 | O=C1NC(=O)C2(CCc3ccc(F)cc32)N1 (stereo unspecified) |  | 5 | 4.00 | 
3 | NC(=O)c1ccc2c(c1)C1(CCO2)NC(=O)NC1=O (stereo unspecified) |  | > 100 | 4.00 | 
4 | O=C1NC(=O)C2(CCOc3ccc(CN4CCCCC4)cc32)N1 (stereo unspecified) | 4.00 |  |  | 
5 | O=C1NC(=O)[C@@]2(CCSc3ccc(F)cc32)N1 | > 7.00 | 0.75 |  | 
6 | COc1ccc(Cl)cc1C1(C)NC(=O)NC1=O (stereo unspecified) | < 4.00 |  |  | 
7 | O=C1NC(=O)C2(CCOc3c(-c4ccccc4)cccc32)N1 (stereo unspecified) |  | 10 |  | 
8 | COc1cccc2c3c(ccc12)C1(CCO3)NC(=O)NC1=O (stereo unspecified) | 7.00 | > 1.5 |  | 
9 | CN1C(=O)N(C)C2(CCCc3ccccc32)C1=O (stereo unspecified) | < 4.00 | 25 |  | 
10 | CC1CCc2ccccc2C12NC(=O)NC2=O (stereo unspecified) | 4.00 | > 25 |  | 
11 | COc1ccc2c(c1)C1(CCS2)NC(=O)NC1=O (stereo unspecified) | 5.00 | > 5 |  | 
12 | O=C1NC(=O)C2(CCc3ccccc32)O1 (stereo unspecified) |  | > 25 |  | 
13 | O=C(O)C1CCCc2ccccc21 (stereo unspecified) | < 4.00 |  |  | 
14 | Cc1cc(C)c2c(c1C)OCCC21NC(=O)NC1=O (stereo unspecified) | 6.00 |  |  | 
15 | O=C1NC(=O)C2(CCSc3cc(Cl)c(Cl)cc32)N1 (stereo unspecified) | > 7.00 | 2.5 |  | 
16 | O=C1NC(=O)C2(N1)c1ccccc1CCC2c1ccccc1 (stereo unspecified) | < 4.00 | > 25 |  | 
17 | O=C1NC(=O)C2(CCCc3[nH]ccc32)N1 (stereo unspecified) | < 4.00 | > 25 |  | 
18 | CN(C)S(=O)(=O)c1ccc2c(c1)C1(CCO2)NC(=O)NC1=O (stereo unspecified) | 4.00 | > 5 |  | 
19 | COc1cc2c(c(OC)c1OC)C1(CC2)NC(=O)NC1=O (stereo unspecified) | 4.00 |  |  | 
20 | CN1CCC2(NC(=O)NC2=O)c2ccccc21 (stereo unspecified) |  | > 25 | 4.00 | 
21 | O=C1NC(=O)C2(CCn3c(=O)ccc4cc(Cl)cc2c43)N1 (stereo unspecified) | > 7.00 | > 1.5 |  | 
22 | O=C1NC(=O)C2(CCCCc3ccccc32)N1 (stereo unspecified) | < 4.00 | > 25 |  | 
23 | O=C1NC(=O)C2(CCCc3sccc32)N1 (stereo unspecified) | 4.00 | 25 |  | 

Row | Compound | pIC50 [1] | ED50 (Rattus norvegicus; [3]) [mg/kg] | pIC50 [2] | ED50 (Rattus norvegicus) [mg/kg]
24 | O=C1NC(=O)C2(CCC(C(=O)O)c3ccccc32)N1 (stereo unspecified) | < 4.00 |  |  | 
25 | O=C1NC(=O)C2(CCCc3ncccc32)N1 (stereo unspecified) | 5.00 | 10 |  | 
26 | O=C1NC(=O)C2(CCSc3c(Cl)cccc32)N1 (stereo unspecified) | 4.00 | > 1.5 |  | 
27 | COc1ccc2c(c1)CCC21NC(=O)NC1=O (stereo unspecified) | 5.00 | > 25 |  | 
28 | O=C1NC(=O)C2(CCCC3CCCCC32)N1 (stereo unspecified) | < 4.00 | < 25 |  | 
29 | O=C1NC(=O)C2(CCOc3c(Cl)cccc32)N1 (stereo unspecified) | 6.00 | > 1.5 |  | 
30 | Cc1cc(Cl)cc2c1OCCC21NC(=O)NC1=O (stereo unspecified) | > 7.00 | < 1.5 |  | 
31 | O=C1NC(=O)C2(Cc3ccccc3C2)N1 | < 4.00 | > 25 |  | 
32 | CC1CCC2(NC(=O)NC2=O)c2ccccc21 (stereo unspecified) | 4.00 | > 25 |  | 
33 | O=C1NC(=O)C2(CCOc3ccc(-c4ccccc4)cc32)N1 (stereo unspecified) | > 4.00 | > 1.5 |  | 
34 | O=C1NC(=O)C2(CCCc3ccccc32)O1 (stereo unspecified) | 5.00 | > 50 |  | 
35 | O=C1NC(=O)C2(CCOc3ccc(Cl)cc32)C(=O)N1 |  | > 10 | 4.00 | 
36 | O=CNC(=O)NC1CCc2ccccc21 (stereo unspecified) | < 4.00 | > 10 |  | 
37 | O=C1CC2(CCc3ccccc32)C(=O)N1 (stereo unspecified) | < 4.00 | > 2.5 |  | 
38 | COc1cc2c(cc1OC)C1(CCC2)NC(=O)NC1=O (stereo unspecified) |  | > 5 | 4.00 | 
39 | O=C(O)C1CCSc2cc(Cl)c(Cl)cc21 (stereo unspecified) | 5.00 |  |  | 
40 | O=C1NC(=O)C2(CCCc3occc32)N1 (stereo unspecified) |  | 25 |  | 
41 | c1ccc2c(c1)CCC21CCNC1 (stereo unspecified) | < 4.00 | > 25 |  | 
42 | Cc1cc(C)c2c(c1)C1(CCO2)NC(=O)NC1=O (stereo unspecified) | 6.00 | > 1.5 |  | 
43 | O=C1CCC2(CCCc3ccccc32)C(=O)N1 (stereo unspecified) | < 4.00 | > 25 |  | 
44 | O=C1NC(=O)C2(CCOc3c(F)cccc32)N1 (stereo unspecified) | > 4.00 |  |  | 
45 | O=C(O)C1CCSc2ccccc21 (stereo unspecified) | 4.00 |  |  | 
46 | O=C1NC(=S)NC12CCCc1ccccc12 (stereo unspecified) | < 4.00 |  |  | 

Row | Compound | pIC50 [1] | ED50 (Rattus norvegicus; [3]) [mg/kg] | pIC50 [2] | ED50 (Rattus norvegicus) [mg/kg]
47 | O=C1NCC2(CCOc3ccc(Cl)cc32)N1 (stereo unspecified) | 5.00 | > 10 |  | 
48 | O=C(O)C1CCOc2c1cc(Cl)c1ccccc21 (stereo unspecified) | 6.00 | > 25 |  | 
49 | S=C1NC(=S)C2(CCCc3ccccc32)N1 (stereo unspecified) | < 4.00 | > 25 |  | 
50 | O=C1NC(=O)[C@@]2(CCOc3ccc(F)cc32)N1 (stereo in doubt; 32) [SORBINIL] |  |  |  | 0.75
51 | O=C1NCNC12CCCc1ccccc12 (stereo unspecified) | < 4.00 | 25 |  | 
52 | O=C1NC(=O)[C@]2(CCOc3ccc(F)cc32)N1 |  | 25 |  | 
53 | O=C1NC(=O)C2(CCC(c3ccccc3)c3ccccc32)N1 (stereo unspecified) |  | > 25 |  | 
54 | NC(=O)C1(NC=O)CCc2ccccc21 (stereo unspecified) | 4.00 | > 10 |  | 
55 | NC(=O)NC(=O)C1CCc2ccccc21 (stereo unspecified) | 4.00 | > 10 |  | 
56 | COc1ccc(Cl)c2c1C1(CCO2)NC(=O)NC1=O (stereo unspecified) | < 4.00 |  |  | 
57 | O=C1NC(=O)C2(CCCCC2)N1 | 4.00 | > 25 |  | 
58 | Cc1ccc(C)c2c1OCCC21NC(=O)NC1=O (stereo unspecified) | 6.00 | > 1.5 |  | 
59 | Cc1cc2c(n1C)CCCC21NC(=O)NC1=O (stereo unspecified) | < 4.00 | > 25 |  | 
60 | CC(C)(C)c1ccc2c(c1)C1(CCO2)NC(=O)NC1=O (stereo unspecified) |  |  | 4.00 | 
61 | CC(C)(C)c1ccc2c(c1)C1(CCS2)NC(=O)NC1=O (stereo unspecified) |  |  | 4.00 | 
62 | O=C1N=C(O)O[C@@]12CCOc1ccc(Cl)cc12 |  |  | 4.00 | 
63 | O=C(O)C1CCOc2c(Cl)cc(Cl)cc21 (stereo unspecified) | 5.00 |  |  | 
64 | O=C1NCC2(CCc3ccccc32)N1 (stereo unspecified) | < 4.00 |  |  | 
65 | O=C1CC2(CCOc3ccc(Cl)cc32)C(=O)N1 (stereo unspecified) | > 4.00 | > 5 |  | 
66 | O=C1NC(=O)C2(CCOc3c(Cl)cc(Cl)cc32)N1 (stereo unspecified) | > 7.00 | 0.25 |  | 
67 | O=C1NC(=O)C2(CCOc3ccc(Cl)cc32)O1 (stereo unspecified) |  | > 1.5 |  | 
68 | COc1cccc2c1CCCC21NC(=O)NC1=O (stereo unspecified) | 5.00 | > 25 |  | 
69 | O=C1NC(=O)C2(CCSc3c(Cl)cc(Cl)cc32)N1 (stereo unspecified) | > 7.00 |  |  | 

Row | Compound | pIC50 [1] | ED50 (Rattus norvegicus; [3]) [mg/kg] | pIC50 [2] | ED50 (Rattus norvegicus) [mg/kg]
70 | COc1ccc(Cl)c2c1CCCC21NC(=O)NC1=O (stereo unspecified) | < 4.00 | > 25 |  | 
71 | O=C1NC(=O)C2(CCS(=O)(=O)c3c(Cl)cc(Cl)cc32)N1 (stereo unspecified) | 7.00 | > 1.5 |  | 
72 | O=C(O)C1CCOc2ccccc21 (stereo unspecified) | 4.00 |  |  | 
73 | COc1ccc2c(c1)C1(CC2)NC(=O)NC1=O (stereo unspecified) | 5.00 | 10 |  | 
74 | O=C1NC(=O)C2(CCc3ccc(O)cc32)N1 (stereo unspecified) |  | > 10 | 4.00 | 
75 | O=C(O)C1CCc2ccccc21 (stereo unspecified) | < 4.00 |  |  | 
76 | O=C1NC(=O)C2(CCOc3ccc4ccccc4c32)N1 (stereo unspecified) | 5.00 | > 1.5 |  | 
77 | O=C1NC(=O)C2(CCSc3c(Cl)ccc(Cl)c32)N1 (stereo unspecified) | < 4.00 |  |  | 
78 | O=C1CC2(CCCc3ccccc32)C(=O)N1 (stereo unspecified) | < 4.00 | 5 |  | 
79 | O=C1CC2(CCCc3ccccc32)CN1 (stereo unspecified) | < 4.00 | > 25 |  | 
80 | O=C1NC(=O)C2(CCOc3ccc(Oc4ccccc4)cc32)N1 (stereo unspecified) |  | 25 |  | 
81 | O=C1NC(=O)C2(CCOc3c2ccc2ccccc32)N1 (stereo unspecified) | > 4.00 | > 1.5 |  | 
82 | O=C(O)C1CCSc2ccc(Cl)cc21 (stereo unspecified) | > 4.00 |  |  | 
83 | CS(=O)(=O)c1ccc2c(c1)C1(CCO2)NC(=O)NC1=O (stereo unspecified) |  |  | 4.00 | 
84 | O=C(O)C1Cc2ccccc2C1 | 4.00 |  |  | 
85 | O=C1NC(=O)C2(CCOc3cc(C(F)(F)F)ccc32)N1 (stereo unspecified) | 6.00 | 5 |  | 
86 | O=C1NC(=O)C2(CCCC2c2ccccc2)N1 (stereo unspecified) | < 4.00 | > 25 |  | 
87 | CSc1ccc2c(c1)C1(CCO2)NC(=O)NC1=O (stereo unspecified) | 6.00 | < 25 |  | 
88 | O=C1NC(=O)C2(CCSc3cc(Cl)ccc32)N1 (stereo unspecified) | 6.00 | > 1.5 |  | 
89 | O=C1NC(=O)C(c2ccccc2)(c2ccccc2)N1 [PHENYTOIN] | < 4.00 | > 250 |  | 
90 | O=C1NC(=O)C2(CCOc3c2ccc2cccnc32)N1 (stereo unspecified) | 5.00 | > 1.5 |  | 
91 | O=C1NC(=O)C2(CCOc3ccccc32)N1 (stereo unspecified) | 5.00 | 5 |  | 
